Laboratory results taken from ChEMBL document CHEMBL1201862, “PubChem BioAssay data set” (2004).
Active and inactive are the calls of the source.

Legend:
[1] = biological target: Mitogen-activated protein kinase 14 (Homo sapiens, UniProt Q16539); type: functional;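 also: part of a kinome-wide panel, MAPK14 entry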
[2] = NIH-3T3 fibroblast cytotoxicity, dose response, cytotoxicity control for antifungal single agent project, cell-based, Alamar Blue, dry powder (AID 602188); type: functional
[3] = biological target: T1, Exodeoxyribonuclease V (Escherichia coli (strain K12), UniProt P04993+P07648+P08394); experiment: E. coli RecBCD inhibitors, dose response, counter-screen for AddAB inhibitor project, absorbance, V66 E. coli, mutant T4 phage (AID 492957); type: functional, cell-based, Escherichia coli str. K-12 substr. MG1655
T1 sequence (P04993 whole entry): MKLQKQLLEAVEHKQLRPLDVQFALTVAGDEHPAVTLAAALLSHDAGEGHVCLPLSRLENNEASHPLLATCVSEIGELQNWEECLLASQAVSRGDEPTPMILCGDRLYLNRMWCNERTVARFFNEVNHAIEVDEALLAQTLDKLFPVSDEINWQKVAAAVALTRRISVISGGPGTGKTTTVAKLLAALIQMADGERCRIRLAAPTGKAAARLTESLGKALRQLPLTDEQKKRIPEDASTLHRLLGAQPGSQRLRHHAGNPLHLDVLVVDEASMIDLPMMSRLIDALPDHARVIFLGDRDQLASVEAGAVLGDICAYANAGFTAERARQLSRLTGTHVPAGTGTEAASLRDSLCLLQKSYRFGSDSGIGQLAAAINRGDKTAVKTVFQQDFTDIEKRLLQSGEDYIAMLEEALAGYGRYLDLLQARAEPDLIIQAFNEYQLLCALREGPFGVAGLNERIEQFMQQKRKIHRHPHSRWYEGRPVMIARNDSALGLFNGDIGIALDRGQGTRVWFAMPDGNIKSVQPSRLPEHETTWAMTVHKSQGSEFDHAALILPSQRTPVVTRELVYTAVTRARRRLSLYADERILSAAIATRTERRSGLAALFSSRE
T1 sequence (P07648 whole entry): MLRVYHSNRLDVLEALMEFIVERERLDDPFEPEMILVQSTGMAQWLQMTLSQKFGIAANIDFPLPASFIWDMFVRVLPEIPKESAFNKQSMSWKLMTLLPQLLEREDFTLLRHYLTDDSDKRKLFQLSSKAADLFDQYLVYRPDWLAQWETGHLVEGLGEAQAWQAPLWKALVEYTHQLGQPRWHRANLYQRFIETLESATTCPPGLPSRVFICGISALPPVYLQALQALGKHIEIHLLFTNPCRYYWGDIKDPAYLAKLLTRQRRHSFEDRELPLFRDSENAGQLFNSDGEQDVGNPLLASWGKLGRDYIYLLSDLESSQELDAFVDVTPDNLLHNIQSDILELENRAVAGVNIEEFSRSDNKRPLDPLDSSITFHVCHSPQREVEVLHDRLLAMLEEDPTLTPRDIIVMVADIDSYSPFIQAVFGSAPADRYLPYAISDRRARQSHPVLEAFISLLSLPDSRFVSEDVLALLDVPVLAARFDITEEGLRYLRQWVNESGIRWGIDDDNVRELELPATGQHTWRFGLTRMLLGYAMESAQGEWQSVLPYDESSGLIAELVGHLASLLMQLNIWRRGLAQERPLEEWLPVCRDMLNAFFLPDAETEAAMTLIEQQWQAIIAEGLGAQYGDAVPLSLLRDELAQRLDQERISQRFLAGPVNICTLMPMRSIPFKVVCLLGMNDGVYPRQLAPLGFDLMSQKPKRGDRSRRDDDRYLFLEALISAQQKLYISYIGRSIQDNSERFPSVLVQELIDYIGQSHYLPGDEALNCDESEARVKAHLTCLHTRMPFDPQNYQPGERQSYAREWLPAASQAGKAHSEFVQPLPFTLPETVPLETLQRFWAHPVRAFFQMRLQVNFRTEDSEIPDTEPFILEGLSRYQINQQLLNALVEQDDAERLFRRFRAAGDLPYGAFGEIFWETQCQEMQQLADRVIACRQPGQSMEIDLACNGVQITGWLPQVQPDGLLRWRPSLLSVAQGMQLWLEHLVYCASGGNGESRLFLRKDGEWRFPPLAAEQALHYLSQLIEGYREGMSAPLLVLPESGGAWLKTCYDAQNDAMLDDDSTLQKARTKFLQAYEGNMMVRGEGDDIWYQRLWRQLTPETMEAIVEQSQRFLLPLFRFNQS
T1 sequence (P08394 whole entry): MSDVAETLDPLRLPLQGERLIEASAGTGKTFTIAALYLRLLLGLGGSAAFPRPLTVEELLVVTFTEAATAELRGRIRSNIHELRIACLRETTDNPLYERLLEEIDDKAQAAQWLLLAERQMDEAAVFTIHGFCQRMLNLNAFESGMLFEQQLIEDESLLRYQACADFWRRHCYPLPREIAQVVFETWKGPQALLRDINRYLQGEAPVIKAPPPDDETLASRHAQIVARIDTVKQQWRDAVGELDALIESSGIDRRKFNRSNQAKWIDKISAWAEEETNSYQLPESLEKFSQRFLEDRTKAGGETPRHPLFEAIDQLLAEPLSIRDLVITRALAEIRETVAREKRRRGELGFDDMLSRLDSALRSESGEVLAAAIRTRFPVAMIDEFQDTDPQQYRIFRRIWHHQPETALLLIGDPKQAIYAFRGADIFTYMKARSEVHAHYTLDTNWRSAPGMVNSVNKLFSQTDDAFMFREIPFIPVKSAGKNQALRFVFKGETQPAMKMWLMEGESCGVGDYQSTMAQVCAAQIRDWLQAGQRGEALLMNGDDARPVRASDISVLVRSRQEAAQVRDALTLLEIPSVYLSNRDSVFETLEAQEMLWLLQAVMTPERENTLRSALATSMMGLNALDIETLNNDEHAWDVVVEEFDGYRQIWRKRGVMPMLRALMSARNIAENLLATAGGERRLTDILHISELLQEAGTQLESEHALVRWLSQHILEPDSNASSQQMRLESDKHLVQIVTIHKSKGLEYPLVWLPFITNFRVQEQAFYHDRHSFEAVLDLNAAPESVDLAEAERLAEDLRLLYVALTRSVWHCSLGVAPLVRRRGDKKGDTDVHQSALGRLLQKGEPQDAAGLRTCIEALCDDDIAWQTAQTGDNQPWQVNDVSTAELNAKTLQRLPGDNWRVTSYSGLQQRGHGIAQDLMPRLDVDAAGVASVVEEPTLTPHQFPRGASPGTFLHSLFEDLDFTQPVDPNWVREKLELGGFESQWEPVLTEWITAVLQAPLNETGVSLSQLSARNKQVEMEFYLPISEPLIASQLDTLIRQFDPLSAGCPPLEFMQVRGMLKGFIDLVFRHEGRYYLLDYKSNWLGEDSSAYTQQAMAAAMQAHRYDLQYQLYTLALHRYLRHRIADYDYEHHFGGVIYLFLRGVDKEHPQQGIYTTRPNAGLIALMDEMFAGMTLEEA

[4] = off-target signal loss in HeLa-CEM21 co-culture – HeLa F-luc CTL cells, cherry-picked, counter-screen for HIV-1 Env fusion inhibitor project, dose response (AID 652040); type: functional, cell-based;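 also: potency for signal decrease marking cytotoxic or nonspecific inhibition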

Mitogen-activated protein kinase 14, sequence (Q16539 whole entry): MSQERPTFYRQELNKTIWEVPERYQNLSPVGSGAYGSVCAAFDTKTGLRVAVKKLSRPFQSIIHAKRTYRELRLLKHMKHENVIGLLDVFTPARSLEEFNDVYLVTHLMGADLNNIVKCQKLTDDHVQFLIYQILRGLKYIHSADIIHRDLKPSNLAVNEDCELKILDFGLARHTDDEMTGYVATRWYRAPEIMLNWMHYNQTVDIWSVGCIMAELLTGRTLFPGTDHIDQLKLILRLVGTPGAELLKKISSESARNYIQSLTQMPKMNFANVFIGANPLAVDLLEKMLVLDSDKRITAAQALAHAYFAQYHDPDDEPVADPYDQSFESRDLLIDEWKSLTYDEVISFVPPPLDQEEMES

| Structure (SMILES) | Ki [1] | AC50 [2] | IC50 [3] | AC50 [4] |
| --- | --- | --- | --- | --- |
| O=C(Nc1cccc(C2Nc3ccc4ccccc4c3C3C=CCC32)c1)c1ccc(F)cc1 (centres undefined) | > 3.98 µM (inactive) | – | – | – |
| CCCC(=O)NC(c1cccs1)c1cc(Cl)c2cccnc2c1O (centres undefined) | – | 1.06 µM (active) | > 119 µM (inactive) | 6.09 µM (active) |
